Common to all, as to format: physicochemical
The nature of data set [1]: Test Example 1: solvent compatibility, observed by naked eyes. To be noted: for Compatibility in solvent (precipitation, appearance of solution): stand for 12 hours; for Compatibility in solvent (solubility, appearance of solution): the initial state. From the text:
The phosphaphenanthrene-based compound of the embodiment 2, the conventional phosphaphenanthrene-based compound of the comparison 1 and the conventional phosphaphenanthrene-based compound of the comparison 2 are used as test samples of the test example 1. The test samples are respectively dissolved in toluene, methyl ethyl ketone, and acetone, so as to give a test to the compatibilities of the test samples in these solvents.

Data set [2] is described as follows: Dissolution of the phosphaphenanthrene-based compound in different solvents. Also on record: key: 1: “easily soluble”, which means the solute is dissolved with stirring at room temperature and the solution is clear; “soluble”, which means the solute is dissolved with stirring when being heated up to 120° C. and the solution is clear; 3: “insoluble”, which means the solute is not dissolve even being heated and stirred. To be noted: about 5 grams in about 30 ml. The protocol:
(§1) In addition, about 5 grams per serving of the phosphaphenanthrene-based compound are weighed and added to about 30 ml of solvents respectively. Stir with or without heating the solution to dissolve the solute. Observe the dissolution of the phosphaphenanthrene-based compound in different solvents, and the results are shown in Table 1, wherein the numeral “1” represents “easily soluble”, which means the solute is dissolved with stirring at room temperature and the solution is clear; the numeral “2” represents “soluble”, which means the solute is dissolved with stirring when being heated up to 120° C. and the solution is clear; the numeral “3” represents “insoluble”, which means the solute is not dissolve even being heated and stirred.
In addition, about 5 grams per serving of the phosphaphenanthrene-based compound (as shown in formula (XVI)) are weighed and added to about 30 ml of solvents respectively. Stir with or without heating to dissolve the solute. Observe dissolution of the phosphaphenanthrene-based compound in different solvents, and the results are shown in Table 2, wherein the numeral “1” represents “easily soluble”, which means the solute is dissolved with stirring at room temperature and the solution is clear; the numeral “2” represents “soluble”, which means the solute is dissolved with stirring when being heated up to […] and the solution is clear; the numeral “3” represents “insoluble”, which means the solute is not dissolve even being heated and stirred.

Assay in data set [3]: as above
Also on record: key: 1: “easily soluble”, which means the solute is dissolved with stirring at room temperature and the solution is clear; “soluble”, which means the solute is dissolved with stirring when being heated up to […] and the solution is clear; 3: “insoluble”, which means the solute is not dissolve even being heated and stirred. To be noted: Methyl ethyl ketone; about 5 grams in about 30 ml. As to the method: as §1
In addition, about 5 grams per serving of the phosphaphenanthrene-based compound (as shown in formula (XVI)) are weighed and added to about 30 ml of solvents respectively. Stir with or without heating to dissolve the solute. […]

As to `C=Cc1ccc(COc2ccc(OCc3ccc(C=C)cc3)c(P3(=O)Oc4ccccc4-c4ccccc43)c2)cc1` (stereo not drawn) [Comparison 1], the “Compatibility in solvent (precipitation, appearance of solution)” value is given as “Precipitated” in data set [1] (Acetone), “Precipitated” in data set [1] (Methyl ethyl ketone) and “No” in data set [1] (Toluene). Moreover, the “Compatibility in solvent (solubility, appearance of solution)” value in data set [1] (Acetone) was “Soluble, clear”; in data set [1] (Methyl ethyl ketone), “Soluble, clear”; in data set [1] (Toluene), “Soluble, clear”.
Turning to `C=Cc1ccc(COc2ccc(-c3ccc(OCc4ccc(C=C)cc4)c(P4(=O)Oc5ccccc5-c5ccccc54)c3)cc2P2(=O)Oc3ccccc3-c3ccccc32)cc1` (stereo not drawn) [Comparison 2], the “Compatibility in solvent (precipitation, appearance of solution)” value in data set [1] (Acetone) was “Precipitated”; in data set [1] (Methyl ethyl ketone), “Precipitated”; in data set [1] (Toluene) it was “No”. Also, the “Compatibility in solvent (solubility, appearance of solution)” value is reported as “Soluble, clear” in data set [1] (Acetone); “Soluble, clear” in data set [1] (Methyl ethyl ketone); “Soluble, clear” in data set [1] (Toluene).
As for `O=P1(C(O)c2ccc(C(O)P3(=O)Oc4ccccc4-c4ccccc43)cc2)Oc2ccccc2-c2ccccc21` (stereo not drawn) [Embodiment 1], the Dissolution in data set [2] (1-Methoxy-2-propyl acetate (PMA)) turned out to be 3; in data set [2] (Cyclohexanone (CYC)), 3; in data set [2] (Dimethylacetamide (DMAC)) it was 3; in data set [2] (Methanol (MT)) it was 3; in data set [2] (Methyl ethyl ketone (MEK)), 3; in data set [2] (N,N-Dimethylformamide (DMF)), 2. The Dissolution in data set [2] (Proprylene glycol monomethyl ether (PM)) and in data set [2] (Toluene (TL)) was 3 throughout.
Take `C=Cc1ccc(COC(c2ccc(C(OCc3ccc(C=C)cc3)P3(=O)Oc4ccccc4-c4ccccc43)cc2)P2(=O)Oc3ccccc3-c3ccccc32)cc1` (stereo not drawn) [Embodiment 2]: the “Compatibility in solvent (precipitation, appearance of solution)” value in data set [1] (Acetone), in data set [1] (Methyl ethyl ketone) and in data set [1] (Toluene) was “No” each time. In addition, the “Compatibility in solvent (solubility, appearance of solution)” value in data set [1] (Acetone) was “Soluble, clear”; in data set [1] (Methyl ethyl ketone), “Soluble, clear”; in data set [1] (Toluene), “Soluble, clear”. Moreover, the Dissolution came to 2 in data set [3], 1 in data set [2] (Dimethylacetamide), 1 in data set [2] (Dimethylformamide) and 1 in data set [2] (Toluene).

Source of the values: US9896551B2, “Phosphaphenanthrene-based compound and related preparation method and application” (Elite Electronic Material(Zhongshan) Co., Ltd., priority 2015, dated 2018).
